Results taken from patent publication US20170121344A1 (Siga Technologies, Inc., priority 2009, published 2017).
Where two headings read alike, the source gives them in different places.

What was measured:
[1] = tested on: Dengue-2 (Strain New Guinea C); assay: Viral yield assay against Dengue-2 in Vero cells; assay type: cell-based, Dengue virus; conditions: Dengue virus, read-out: Activity (EC50 in μM) DENV-2
Method in brief: (§1)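 Progeny virus from compound-treated Vero monolayers infected at an MOI of 0.1 is collected after 48 h at 37° C and titered on Vero cells. DMSO serves as control.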

[2] = tested on: DENV-1; assay: Viral yield assay against DENV-1 in Vero cells; assay type: cell-based; conditions: Dengue virus, DENV1, viral yield assay
Method in brief: as §1

[3] = tested on: DENV-3; assay: Viral yield assay against DENV-3 in Vero cells; assay type: cell-based; conditions: Dengue virus, DENV3, viral yield assay
Method in brief: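 Infect Vero cells with virus (MOI 0.1), add compound or DMSO, incubate at 37° C, collect progeny at 48 hours post infection, then titrate on Vero cells to obtain EC50.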

[4] = tested on: DENV-4; assay: Viral yield assay against DENV-4 in Vero cells; assay type: cell-based; conditions: Dengue virus, DENV4, viral yield assay
Method in brief: as §1

[5] = DENV2, viral yield assay, Vero cells, MOI 0.1, 48 hours post infection

Measured: EC50

Nc1c(C(=O)Nc2ccc3c(c2)OCCO3)sc2nc(-c3cccs3)ccc12 [Compound 415, 3-amino-N-(2,3-dihydro-1,4-benzodioxin-6-yl)-6-(2-thienyl)thieno[2,3-b] pyridine-2-carboxamide]
< 5 µM: [1]; [5] | [2] | [3] | [4]

Nc1c(C(=O)Nc2ccc(OC(F)(F)F)cc2)sc2nc(-c3ccncc3)ccc12 [Compound 417, 3-amino-6-(4-pyridyl)-N-[4-(trifluoromethoxy)phenyl]thieno[2,3-b] pyridine-2-carboxamide]
< 5 µM: [1]; [5] | [2] | [3] | [4]

Nc1c(C(=O)Nc2ccc(Br)cc2)sc2nc(-c3ccc(Cl)cc3)ccc12 [Compound 425]
< 5 µM: [1]; [5] | [2] | [3] | [4]

COc1ccc(NC(=O)c2sc3nc(-c4cccs4)ccc3c2N)cc1 [Compound 427, 3-amino-N-(4-methoxyphenyl)-6-(2-thienyl)thieno[2,3-b]pyridine-2-carboxamide]
< 5 µM: [1]; [5] | [2] | [3] | [4]

Nc1c(C(=O)Nc2ccc(OC(F)(F)F)cc2)sc2nc(-c3cccs3)ccc12 [Compound 428, 3-amino-6-(2-thienyl)-N-[4-(trifluoromethoxy)phenyl]thieno[2,3-b] pyridine-2-carboxamide]
< 5 µM: [1]; [5] | [2] | [3] | [4]

CC(=O)c1ccc(NC(=O)c2sc3nc(-c4cccs4)ccc3c2N)cc1 [Compound 429, N-(4-acetylphenyl)-3-amino-6-(2-thienyl)thieno[2,3-b]pyridine-2-carboxamide]
< 5 µM: [1]; [5] | [2] | [3] | [4]

COc1cccc(-c2ccc3c(N)c(C(=O)Nc4ccc(OC(F)(F)F)cc4)sc3n2)c1 [Compound 430, 3-amino-6-(3-methoxyphenyl)-N-[4-(trifluoromethoxy)phenyl]thieno[2,3-b] pyridine-2-carboxamide]
< 5 µM: [1]; [5] | [2] | [3] | [4]

Nc1c(C(=O)Nc2cc(Cl)cc(Cl)c2)sc2nc(-c3cccs3)ccc12 [Compound 431, 3-amino-N-(3,5-dichloropehnyl)-6-(2-thienyl)thieno[2,3-b]pyridine-2-carboxamide]
< 5 µM: [1]; [5] | [2] | [3] | [4]

Nc1c(C(=O)Nc2cc(Cl)ccc2Cl)sc2nc(-c3cccs3)ccc12 [Compound 433, 3-amino-N-(2,5-dichlorophenyl)-6-(2-thienyl)thieno[2,3-b]pyridine-2-carboxamide]
< 5 µM: [1]; [5] | [2] | [3] | [4]

Nc1c(C(=O)Nc2cccc(Cl)c2Cl)sc2nc(-c3cccs3)ccc12 [Compound 434, 3-amino-N-(2,3-dichlorophenyl)-6-(2-thienyl)thieno[2,3-b]pyridine-2-carboxamide]
< 5 µM: [1]; [5] | [2] | [3] | [4]

Nc1c(C(=O)Nc2ccccc2C(F)(F)F)sc2nc(-c3cccs3)ccc12 [Compound 437, 3-amino-6-(2-thienyl)-N-[2-(trilfuoromethyl)phenyl]thieno[2,3-b] pyridine-2-carboxamide]
< 5 µM: [1]; [5] | [2] | [3] | [4]

Cc1ccc(C)c(NC(=O)c2sc3nc(-c4cccs4)ccc3c2N)c1 [Compound 438, 3-amino-N-(2,5-dimethylphenyl)-6-(2-thienyl)thieno[2,3-b]pyridine-2-carboxamide]
< 5 µM: [1]; [5] | [2] | [3] | [4]

Nc1c(C(=O)Nc2ccc(Br)cc2)sc2nc(-c3ccco3)ccc12 [Compound 439, 3-amino-N-(4-bromophenyl)-6-(2-furyl)thieno[2,3-b]pyridine-2-carboxamide]
< 5 µM: [1]; DENV2, Vero, 48 h | [2] | [3] | [4]

COc1ccc(OC)c(NC(=O)c2sc3nc(-c4cccs4)ccc3c2N)c1 [Compound 441, 3-amino-N-(2,5-dimethoxyphenyl)-6-(2-thienyl)thieno[2,3-b]pyridine-2-carboxamide]
< 5 µM: [1]; DENV2, Vero, 48 h | [2] | [3] | [4]

Nc1c(C(=O)Nc2cccc(Cl)c2)sc2nc(-c3cccs3)ccc12 [Compound 445, 3-amino-N-(3-chlorophenyl)-6-(2-thienyl)thieno[2,3-b]pyridine-2-carboxamide]
< 5 µM: [1]; [5] | [2] | [3] | [4]

COc1cccc(-c2ccc3c(N)c(C(=O)Nc4ccc(Br)cc4)sc3n2)c1 [Compound 446, 3-amino-N-(4-bromophenyl)-6-(3-methoxyphenyl)thieno[2,3-b]pyridine-2-carboxamide]
< 5 µM: [1]; [5] | [2] | [3] | [4]

COc1cccc(-c2ccc3c(N)c(C(=O)Nc4cccc(Br)c4)sc3n2)c1 [Compound 447, 3-amino-N-(3-bromophenyl)-6-(3-methoxyphenyl)thieno[2,3-b]pyridine-2-carboxamide]
< 5 µM: [1]; [5] | [2] | [3] | [4]

COc1cccc(-c2ccc3c(N)c(C(=O)Nc4ccc(C(F)(F)F)cc4)sc3n2)c1 [Compound 448, 3-amino-6-(3-methoxyphenyl)-N-[4-(trifluoromethyl)phenyl]thieno[2,3-b] pyridine-2-carboxamide]
< 5 µM: [1]; [5] | [2] | [3] | [4]

COc1cccc(-c2ccc3c(N)c(C(=O)Nc4ccccc4C(F)(F)F)sc3n2)c1 [Compound 449, 3-amino-6-(3-methoxyphenyl)-N-[2-(trifluoromethyl)phenyl]thieno[2,3-b] pyridine-2-carboxamide]
< 5 µM: [1]; [5] | [2] | [3] | [4]

COc1cccc(-c2ccc3c(N)c(C(=O)Nc4cccc(C(F)(F)F)c4)sc3n2)c1 [Compound 450, 3-amino-6-(3-methoxyphenyl)-N-[3-(trifluoromethyl)phenyl]thieno[2,3-b] pyridine-2-carboxamide]
< 5 µM: [1]; [5] | [2] | [3] | [4]
